# Laboratory results taken from patent US10189774B2 (priority 2006, dated 2019).
# Several values for one entry are separate records, joined by “and”; a condition that tells them apart may be missing. Equal values may be shown once. Read-outs that look alike come from different tables or passages of the source.
# Legend:
# [1] = tested on: human myeloma cell line derived from the ascites of a patient with multiple myeloma; conditions: mouse, in vivo
# physchem = conditions: water
# [2] = pH 7.4
# [3] = tested on: Human Gastric Cancer HGC-27 cell; experiment: cells; assay type: cell-based; conditions: for EC50: Homo sapiens, HGC-27, 72 h, read-out: EC50, HGC-27 cell growth inhibition; for HGC-27 cell growth inhibition rate: 72 hours
smiles,measurement,setting,value
"Br.CCN(CC)CCOC(=O)[C@H](Cc1ccc(N(CCCl)CCCl)cc1)NC(C)=O [4-[bis(2-chloroethyl)amino]-N-acetyl-L-phenylalanine N,N-diethylaminoethyl ester hydrobromide]",Life Elongation Rate,[1]; hydrobromide,287% and 266%
same,None Disease Rate,[1]; hydrobromide,4/7 and 3/7
same,Survival Period,[1]; hydrobromide,130.5 ± 1.6 days and 121.2 ± 1.8 days
same,solubility,physchem,300 mg/mL
same,In vitro penetration rate (apparent flux) of HPPs,[2]; human,1.10 mg/cm^2/h
CS(=O)(=O)CCN(CCS(C)(=O)=O)c1ccc(CCCC(=O)O)cc1 [4-[bis(2-methylsulfonylethyl)amino]benzenebutanoic acid],In vitro penetration rate (apparent flux) of parent compounds,[2]; human,0.01 mg/cm^2/h
"Br.CCN(CC)CCOC(=O)CCCc1ccc(N(CCCl)CCCl)cc1 [N,N-diethylaminoethyl 4-[bis(2-chloroethyl)amino]benzenebutyrate.HBr]",Life Elongation Rate,[1],282% and 253%
same,None Disease Rate,[1],4/7
same,Survival Period,[1],128.5 ± 1.3 days and 115.2 ± 2.1 days
same,In vitro penetration rate (apparent flux) of HPPs,[2],1.01 mg/cm^2/h
"CCN(CC)CCOC(=O)CCCc1ccc(N(CCCl)CCCl)cc1 [N,N-diethylaminoethyl 4-[bis(2-chloroethyl)amino]benzenebutyrate]",EC50,[3],< 6 µM
same,HGC-27 cell growth inhibition rate,[3]; final concentration 0.5 μm,25.5%
same,HGC-27 cell growth inhibition rate,[3]; final concentration 2 μm,34.7%
same,HGC-27 cell growth inhibition rate,[3]; final concentration 5 μm,46.9%
same,HGC-27 cell growth inhibition rate,[3]; final concentration 25 μm,54.6%
same,HGC-27 cell growth inhibition rate,[3]; final concentration 50 μm,81.6%
same,HGC-27 cell growth inhibition rate,[3]; final concentration 75 μm,93.4%
same,HGC-27 cell growth inhibition rate,[3]; final concentration 100 μm,94.7%
same,HGC-27 cell growth inhibition rate,[3]; final concentration 200 μm,94.8%
same,HGC-27 cell growth inhibition rate,[3]; final concentration 500 μm,94.8%
O=C(O)CCCc1ccc(N(CCCl)CCCl)cc1 [chlorambucil],Life Elongation Rate,[1],127% and 198%
same,None Disease Rate,[1],2/7 and 3/7
same,Survival Period,[1],57.8 ± 1.5 days and 90.2 ± 1.9 days
same,EC50,[3],> 100 µM
same,HGC-27 cell growth inhibition rate,[3]; final concentration 2 μm,0.3%
same,HGC-27 cell growth inhibition rate,[3]; final concentration 5 μm,1.6%
same,HGC-27 cell growth inhibition rate,[3]; final concentration 25 μm,25.0%
same,HGC-27 cell growth inhibition rate,[3]; final concentration 50 μm,34.9%
same,HGC-27 cell growth inhibition rate,[3]; final concentration 75 μm,34.2%
same,HGC-27 cell growth inhibition rate,[3]; final concentration 100 μm,39.2%
same,HGC-27 cell growth inhibition rate,[3]; final concentration 200 μm,47.7%
same,HGC-27 cell growth inhibition rate,[3]; final concentration 500 μm,81.0%
same,In vitro penetration rate (apparent flux) of parent compounds,[2]; human,0.01 mg/cm^2/h
CCN(CC)CCOC(=O)CCCc1ccc(N(CCS(C)(=O)=O)CCS(C)(=O)=O)cc1.Cl [diethylaminoethyl 4-[bis(2-methylsulfonylethyl)amino]benzenebutyrate.HCl],Life Elongation Rate,[1],269% and 244%
same,None Disease Rate,[1],4/7 and 3/7
same,Survival Period,[1],122.5 ± 1.7 days and 111.2 ± 1.9 days
Br.CCN(CC)CCOC(=O)CCCc1ccc(N(CCS(C)(=O)=O)CCS(C)(=O)=O)cc1 [diethylaminoethyl 4-[bis(2-methylsulfonylethyl)amino]benzenebutyrate•HBr],In vitro penetration rate (apparent flux) of HPPs,[2],0.94 mg/cm^2/h
N[C@@H](Cc1ccc(N(CCCl)CCCl)cc1)C(=O)O [melphalan],Life Elongation Rate,[1],195% and 122%
same,Survival Period,[1],88.5 ± 1.8 days and 55.7 ± 1.3 days
same,In vitro penetration rate (apparent flux) of parent compounds,[2]; human,0.01 mg/cm^2/h
"CC(=O)O[C@H]1C(=O)[C@@]2(C)[C@H]([C@H](OC(=O)c3ccccc3)[C@]3(O)C[C@H](OC(=O)[C@H](O)[C@@H](NC(=O)c4ccccc4)c4ccccc4)C(C)=C1C3(C)C)[C@]1(OC(C)=O)CO[C@@H]1C[C@@H]2O [taxol, Taxol]",EC50,[3],~0.013 µM
same,HGC-27 cell growth inhibition rate,[3]; final concentration 0.5 nM,10.3%
same,HGC-27 cell growth inhibition rate,[3]; final concentration 1 nm,21.6%
same,HGC-27 cell growth inhibition rate,[3]; final concentration 10 nm,45.0%
same,HGC-27 cell growth inhibition rate,[3]; final concentration 25 nm,76.9%
same,HGC-27 cell growth inhibition rate,[3]; final concentration 50 nm,85.2%
same,HGC-27 cell growth inhibition rate,[3]; final concentration 100 nm,92.2%
same,HGC-27 cell growth inhibition rate,[3]; final concentration 500 nm,94.7%
same,HGC-27 cell growth inhibition rate,[3]; final concentration 5000 nm,95.8%
